Data from patent publication US12310973B2, “Administration and dosage of diaminophenothiazines” (WisTa Laboratories Ltd., priority 2016, dated 2025).
“And” between values parts separate entries of the source, which are not always exact repeats. Equal values may be shown once.

Legend:
[1] = system: mild to moderate AD patients; assay: Phase 3 trial in mild to moderate AD: ADCS-ADL change from baseline; format: in vivo, human
Source text: The co-primary efficacy outcomes were change from baseline in 11-item Alzheimer's Disease Assessment Scale—cognitive subscale (ADAS-cog) and the 23-item Alzheimer's Disease Cooperative Study Activities of Daily Living (ADCS-ADL). Magnetic resonance imaging (MRI) volumetry was chosen as the principal secondary outcome to support a potential effect on the rate of brain atrophy (Fox et al., 1997; Ridha et al., 2008). Change in Lateral Ventricular Volume (LVV), as measured by the Ventricular Boundary Shift Integral (VBSI), (Salloway et al., 2014) was chosen as the principal measure as it provides high-contrast boundaries for measurement and is less affected by motion artefacts than whole brain or smaller structures. Key supportive topographical measures (temporo-parietal (TPV) and hippocampal volume (HV)) are also reported.
Patients were recruited at 115 sites across 16 countries between January 2013 and August 2014. Enrolment of approximately 833 patients was targeted, with 891 patients actually recruited, in order to obtain data on approximately 500 patients completing the study, assuming a 30-40% drop-out rate. […] Adult caregiver(s) were required to participate. Concomitant use of AChEIs and/or memantine was permitted, provided the patient had been taking the medication(s) for […], with no changes to the dosage for 26 weeks prior to screening. Concomitant use of serotonergic antidepressant medication was permitted, but patients were monitored closely using a targeted rating scale derived from 4 published diagnostic criteria (Alusik et al., 2014) due to a theoretical potential for serotonin syndrome (Ramsay et al., 2007). […] Because MT^+ in high doses can induce methaemoglobinaemia, subjects with glucose-6-phosphate dehydrogenase deficiency or who were otherwise at haematological risk were excluded. Other inclusion/exclusion criteria are provided in the Supplementary Materials.
Patients were randomised at baseline to LMTM 75 mg b.i.d. or 125 mg b.i.d. (expressed as MT base equivalent) or control in a 3:3:4 ratio. The randomisation was stratified according to geographical region (3 levels: North America, Europe, rest of world), use of AD-labelled co-medications (2 levels, using or not using) and severity (2 levels, moderate MMSE 14-19 inclusive, mild MMSE 20-26 inclusive). Patients in the control arm received a dose of 4 mg b.i.d. to maintain blinding.
ADAS-cog and ADCS-ADL assessments were performed at baseline and every 13 weeks thereafter, with change at 65 weeks (the final on-treatment visit) the primary efficacy measures. These were repeated at the final off-treatment follow-up visit at Week 69. Secondary efficacy measures included Clinical Global Impression of Change (ADCS-CGIC, administered by an independent rater); MMSE, administered on screening and at Weeks 26, 52, 65 and 69. Brain MRI scans were performed at baseline/screening and every 13 weeks using a standardized protocol including volumetric 3D T1-weighted data consistent with ADNI recommendations, FLAIR, T2* Gradient Echo and T2-weighted sequences. Diffusion-Weighted Imaging was also available at screening in order to exclude patients with co-existing pathology that would lead to a diagnosis other than probable AD. Each site was first qualified ensuring standardised acquisition protocol, patient handling and data management. MRI data were centrally collected by Imaging Corelab (Bioclinica). Data were centrally reviewed by RadMD for eligibility and safety (Amyloid Related Imaging Abnormalities, or ARIA monitoring) on an on-going basis. Volumetric 3DT1 data were also reviewed centrally in order to measure (using a boundary shift integral (BSI) technique; Salloway et al., 2014) change in LVV as principal secondary outcome measure, and as exploratory endpoints temporo-parietal volume (TPV), whole brain volume (WBV) and hippocampal volume (HV, estimated as the mean of left and right) (Wischik et al., 2016). […]

Mild AD patients = assay: Further 18-month Phase 3 trial in mild AD; format: in vivo, human
Procedure: To examine the potential efficacy of LMTM as monotherapy in non-randomised observational cohort analyses as modified primary outcomes in an 18-months Phase 3 trial in mild AD.
Mild AD patients (n=800) were randomly assigned to 100 mg twice a day or 4 mg twice a day.
The Statistical Analysis Plan was revised in light of Example 3 (which completed earlier) prior to database lock and unblinding, to compare the 100 mg twice a day as monotherapy subgroup (n=79) versus 4 mg twice a day as randomised (n=396), and 4 mg twice a day as monotherapy (n=76) versus 4 mg twice a day as add-on therapy (n=297), with strong control of family-wise type I error.
We therefore modified the primary analyses and treatment comparisons in the study described in this Example (prior to database lock and unblinding) to investigate whether the monotherapy differences could be confirmed as observational cohort comparisons defined as primary outcomes with strong control of family-wise type I error in the second independent study. The monotherapy cohort comparisons which were of particular interest in light of the earlier study were: (A) 100 mg twice a day a monotherapy compared with the controls as originally randomised, and (B) 4 mg twice a day as monotherapy compared with the same dose as add-on to standard AD treatments.

SMILES: CN(C)c1ccc2c(c1)Sc1cc(N(C)C)ccc1N2 [LMTM, leuco-methythioninium bis(hydromethanesulfonate)]
- ADCS-ADL effect size as % of the decline over 65 weeks seen in the control arm ([1]; 75 mg b.i.d. monotherapy, 65 weeks): 82%±23%
- ADCS-ADL effect size as % of the decline over 65 weeks seen in the control arm ([1]; 125 mg b.i.d. monotherapy, 65 weeks): 88%±23%
- ADCS-ADL, Estimate (change from baseline) ([1]; Table 2 primary analysis, 65 weeks, covariates additive, control arm (LMTM 4 mg b.i.d.)): −8.22 ADCS-ADL units
- ADCS-ADL, Estimate (difference with respect to control) ([1]; Table 2 primary analysis, 65 weeks, 75 mg b.i.d.): −0.93 ADCS-ADL units
- ADCS-ADL, Estimate (difference with respect to control) ([1]; Table 2 primary analysis, 65 weeks, 125 mg b.i.d.): −0.34 ADCS-ADL units
- ADCS-ADL, Estimate (mean additive treatment benefit) ([1]; Table 2 primary analysis, 65 weeks, patients not using AChEI/Mem (additive covariate)): 2.00 ADCS-ADL units
- ADCS-ADL, Estimate (difference vs control) ([1]; Table 3, AChEI/Mem as interaction term, 65 weeks, 75 mg b.i.d. + AChEI/Mem): −2.16 ADCS-ADL units
- ADCS-ADL, Estimate (difference vs control) ([1]; Table 3, AChEI/Mem as interaction term, 65 weeks, 75 mg b.i.d. monotherapy): 6.48 ADCS-ADL units
- ADCS-ADL, Estimate (difference vs control) ([1]; Table 3, AChEI/Mem as interaction term, 65 weeks, 125 mg b.i.d. + AChEI/Mem): −1.62 ADCS-ADL units
- ADCS-ADL, Estimate (difference vs control) ([1]; Table 3, AChEI/Mem as interaction term, 65 weeks, 125 mg b.i.d. monotherapy): 6.92 ADCS-ADL units and 6.93 ADCS-ADL units
- ADCS-ADL, Estimate (change from baseline) ([1]; Table 3, AChEI/Mem as interaction term, 65 weeks, control arm (4 mg b.i.d.)): −7.92 ADCS-ADL units
- ADCS-ADL, Estimate (change from baseline) ([1]; Table 4 post-hoc, control-arm subjects, 4 mg b.i.d. + AChEI/Mem): −8.90 ADCS-ADL units
- ADCS-ADL, Estimate (difference) ([1]; Table 4 post-hoc, control-arm subjects, 4 mg b.i.d. monotherapy vs 4 mg b.i.d. + AChEI/Mem): 7.19 ADCS-ADL units
- ADCS-ADL, Estimate (change from baseline) ([1]; Table 7, mild AD, 4 mg b.i.d. + AChEI/Mem (control-arm subjects)): −3.86 ADCS-ADL units
- ADCS-ADL, Estimate (difference) ([1]; Table 7, mild AD, 4 mg b.i.d. alone vs 4 mg b.i.d. + AChEI/Mem): 5.20 ADCS-ADL units
- ADCS-ADL, Estimate (difference) ([1]; Table 7, mild AD, 75 mg b.i.d. alone vs control arm as randomised): 4.65 ADCS-ADL units
- ADCS-ADL, Estimate (difference) ([1]; Table 7, mild AD, 125 mg b.i.d. alone vs control arm as randomised): 7.77 ADCS-ADL units
- ADCS-ADL, Estimate (change from baseline) ([1]; Table 7, mild AD, control arm as randomised (4 mg b.i.d.)): −3.20 ADCS-ADL units
- ADCS-ADL, Estimate (change from baseline) ([1]; Table 7, moderate AD, 4 mg b.i.d. + AChEI/Mem (control-arm subjects)): −11.91 ADCS-ADL units
- ADCS-ADL, Estimate (difference) ([1]; Table 7, moderate AD, 4 mg b.i.d. alone vs 4 mg b.i.d. + AChEI/Mem): 7.70 ADCS-ADL units
- ADCS-ADL, Estimate (difference) ([1]; Table 7, moderate AD, 75 mg b.i.d. alone vs control arm as randomised): 6.89 ADCS-ADL units
- ADCS-ADL, Estimate (difference) ([1]; Table 7, moderate AD, 125 mg b.i.d. alone vs control arm as randomised): 5.53 ADCS-ADL units
- ADCS-ADL, Estimate (change from baseline) ([1]; Table 7, moderate AD, control arm as randomised (4 mg b.i.d.)): −10.93 ADCS-ADL units
- ADCS-ADL decline at 12 months (mean±se) ([1]; control arm (LMTM 4 mg b.i.d.), 12 months): −6.51±0.63
- Mean treatment benefit relative to control on ADCS-ADL ([1]; mild patients, LMTM monotherapy): 156%±39%
- Withdrawal rate over 18 months (Mild AD patients; 4 mg twice a day): 25%
- Withdrawal rate over 18 months (Mild AD patients; 100 mg twice a day): 46%
- Revised analyses on ADAS-cog, ADCS-ADL, MRI atrophy and glucose uptake (Mild AD patients; 100 mg twice a day monotherapy vs 4 mg twice a day as randomised, 4 mg twice a day monotherapy vs add-on, 18 months): statistically significant at the required threshold of p<0.025
- Annualised rate of whole brain atrophy (Mild AD patients; after LMTM as monotherapy for 9 months, within-cohort comparison): the rate was reduced to that reported for normal elderly controls
